# From US9850283B2, “Macrocyclic inhibitors of the PD-1/PD-L1 and CD80(B7-1)/PD-L1 protein/protein interactions” (BRISTOL-MYERS SQUIBB COMPANY, priority 2013, dated 2017)
# Where two headings read alike, the source gives them in different places. Positions of bridges follow the written chain, without caps; N, C: chain ends. Non-standard residues stand in square brackets, D forms with d. Residues, ends and D or L forms follow the SMILES beside them. ξ: configuration not given here. Pro(4,4-F2) = O=C(O)[C@@H]1CC(F)(F)CN1; Bta = N[C@@H](Cc1csc2ccccc12)C(=O)O; Hyp = O=C(O)[C@@H]1C[C@@H](O)CN1; NMeE = CN[C@@H](CCC(=O)O)C(=O)O; NMeD = CN[C@@H](CC(=O)O)C(=O)O; NMeNle = CCCC[C@H](NC)C(=O)O; Pip = O=C(O)[C@@H]1CCCCN1; NMeA = CN[C@@H](C)C(=O)O; Orn = NCCC[C@H](N)C(=O)O; Dab = NCC[C@H](N)C(=O)O; Dap = NC[C@H](N)C(=O)O; ξP = O=C(O)C1CCCN1
# Key:
# Human PD-L1/PD-1 = target: T1, Human PD-L1/PD-1 (Homo sapiens, UniProt Q9NZQ7); test: HTRF PD-1-Ig/PD-L1-His binding assay (human PD-L1)
# T1 construct: made in house; host or cells: HEK293T
# T1 sequence (Q9NZQ7 with tags, fused parts or gaps): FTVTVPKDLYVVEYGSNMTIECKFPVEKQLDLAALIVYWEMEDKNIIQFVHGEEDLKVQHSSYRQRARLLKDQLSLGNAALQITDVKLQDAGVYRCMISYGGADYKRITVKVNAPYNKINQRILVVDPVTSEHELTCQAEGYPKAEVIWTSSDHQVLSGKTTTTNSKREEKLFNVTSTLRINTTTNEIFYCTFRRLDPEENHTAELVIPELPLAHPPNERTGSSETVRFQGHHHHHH
# Outline: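 Interaction of Fc-tagged soluble PD-1 with His-tagged soluble PD-L1 is monitored by time-resolved FRET. Donor is europium cryptate anti-Ig (1 nM final) and acceptor is APC anti-His (20 nM final). Assay buffer is dPBS with 0.1% BSA and 0.05% Tween-20.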
# [1] = target: T2, LK35.2-hPD-L1 cells / PE-labeled PD-1-Ig (Homo sapiens, UniProt Q9NZQ7); test: LK35.2-hPD-L1 cell binding high-content screening assay; format: cell-based; details: cell line of CBA not given (LK35.2-hPD-L1 or 293T-hPD-L1)
# T2 construct: expressed in transfected cells; host or cells: LK35.2 mouse B cell line
# T2 sequence (Q9NZQ7 19-290): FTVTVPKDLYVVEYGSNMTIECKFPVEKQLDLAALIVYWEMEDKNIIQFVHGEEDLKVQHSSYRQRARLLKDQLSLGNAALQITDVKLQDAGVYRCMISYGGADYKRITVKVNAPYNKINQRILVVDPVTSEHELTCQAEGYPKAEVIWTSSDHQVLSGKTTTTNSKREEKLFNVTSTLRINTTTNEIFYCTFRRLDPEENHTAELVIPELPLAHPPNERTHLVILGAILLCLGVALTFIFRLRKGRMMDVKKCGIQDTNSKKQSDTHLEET
# Outline: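 Readout: high-content imaging of PE-PD-1-Ig bound to LK35.2-hPD-L1 cells. Cells plated overnight (RPMI/10% FCS); compound + 1 nM PE-PD-1-Ig, 1 h, 37 °C; 3× dPBS wash before imaging.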
# [2] = cluster symbol, read-out: HTRF IC50 cluster
# [3] = cluster symbol, read-out: CBA IC50 cluster
Structure (SMILES),IC50 (Human PD-L1/PD-1; [2]) [nM],"IC50 [1, 3] [nM]",IC50 (Human PD-L1/PD-1; read-out: HTRF IC50 value) [nM],IC50 ([1]; read-out: CBA IC50 value) [nM]
CCCC[C@H]1C(=O)N(C)[C@@H](CCCC)C(=O)N[C@@H](CCCN)C(=O)N[C@H](C(=O)NCC(N)=O)CSCC(=O)N[C@@H](Cc2ccc(O)cc2)C(=O)N(C)[C@@H](C)C(=O)N[C@@H](CC(=O)O)C(=O)N2CCC[C@H]2C(=O)N[C@@H](CN)C(=O)N[C@@H](CC(=O)O)C(=O)N2C[C@H](O)C[C@H]2C(=O)N[C@@H](Cc2c[nH]c3ccccc23)C(=O)N[C@@H](CCN)C(=O)N[C@@H](Cc2csc3ccccc23)C(=O)N1C [Example 1184] ({CH2CO}-Y[NMeA]DP[Dap]D[Hyp]W[Dab][Bta][NMeNle][NMeNle][Orn]CG-NH2; thioether N-14),0.385 to 6.74,0.158 to 4.71,,
CCCC[C@H]1C(=O)N(C)[C@@H](CCCC)C(=O)N[C@@H](CCCN)C(=O)N[C@H](C(=O)NCC(N)=O)CSCC(=O)N[C@@H](Cc2ccc(O)cc2)C(=O)N(C)[C@@H](C)C(=O)N[C@@H](CC(N)=O)C(=O)N2CCC[C@H]2C(=O)N[C@@H](CN)C(=O)N[C@@H](CCC(=O)O)C(=O)N2C[C@H](O)C[C@H]2C(=O)N[C@@H](Cc2c[nH]c3ccccc23)C(=O)N[C@@H](CCN)C(=O)N[C@@H](Cc2csc3ccccc23)C(=O)N1C [Example 1185] ({CH2CO}-Y[NMeA]NP[Dap]E[Hyp]W[Dab][Bta][NMeNle][NMeNle][Orn]CG-NH2; thioether N-14),0.385 to 6.74,0.158 to 4.71,,
CCCC[C@H]1C(=O)N(C)[C@@H](CCCC)C(=O)N[C@@H](CCCN)C(=O)N[C@H](C(=O)NCC(N)=O)CSCC(=O)N[C@@H](Cc2ccc(O)cc2)C(=O)N(C)[C@@H](C)C(=O)N[C@@H](CC(N)=O)C(=O)N2CCC[C@H]2C(=O)N[C@@H](CN)C(=O)N[C@@H](CC(=O)O)C(=O)N2C[C@H](O)C[C@H]2C(=O)N[C@@H](Cc2c[nH]c3ccccc23)C(=O)N[C@@H](CCN)C(=O)N[C@@H](Cc2csc3ccccc23)C(=O)N1C [Example 1186] ({CH2CO}-Y[NMeA]NP[Dap]D[Hyp]W[Dab][Bta][NMeNle][NMeNle][Orn]CG-NH2; thioether N-14),0.385 to 6.74,0.158 to 4.71,,
CCCC[C@H]1C(=O)N(C)[C@@H](CCCC)C(=O)N[C@@H](CCCN)C(=O)N[C@H](C(=O)NCC(N)=O)CSCC(=O)N[C@@H](Cc2ccc(O)cc2)C(=O)N2CCC[C@H]2C(=O)N[C@@H](CC(=O)O)C(=O)N2CCC[C@H]2C(=O)N[C@@H](CN)C(=O)N[C@@H](CCC(N)=O)C(=O)N2C[C@H](O)C[C@H]2C(=O)N[C@@H](Cc2c[nH]c3ccccc23)C(=O)N[C@@H](CCN)C(=O)N[C@@H](Cc2csc3ccccc23)C(=O)N1C [Example 1187] ({CH2CO}-YPDP[Dap]Q[Hyp]W[Dab][Bta][NMeNle][NMeNle][Orn]CG-NH2; thioether N-14),6.76 to 30.3,4.78 to 72.9,,
CCCC[C@H]1C(=O)N(C)[C@@H](CCCC)C(=O)N[C@@H](CCCN)C(=O)N[C@H](C(=O)NCC(N)=O)CSCC(=O)N[C@@H](Cc2ccc(O)cc2)C(=O)N2C[C@@H](N)C[C@H]2C(=O)N[C@@H](CC(N)=O)C(=O)N2CCC[C@H]2C(=O)N[C@@H](Cc2cnc[nH]2)C(=O)N[C@@H](CC(C)C)C(=O)N2C[C@H](O)C[C@H]2C(=O)N[C@@H](Cc2c[nH]c3ccccc23)C(=O)N[C@@H](CO)C(=O)N[C@@H](Cc2c[nH]c3ccccc23)C(=O)N1C [Example 1188],6.76 to 30.3,4.78 to 72.9,,
CCCC[C@H]1C(=O)N(C)[C@@H](CCCC)C(=O)N[C@@H](CCCNC(=N)N)C(=O)N[C@H](C(=O)NCC(N)=O)CSCC(=O)N[C@@H](Cc2ccc(O)cc2)C(=O)N(C)[C@@H](CCC(=O)O)C(=O)N[C@@H](CC(N)=O)C(=O)N2CCC[C@H]2C(=O)N[C@@H](Cc2cnc[nH]2)C(=O)N[C@@H](CC(C)C)C(=O)N(C)CC(=O)N[C@@H](Cc2c[nH]c3ccccc23)C(=O)N[C@@H](CO)C(=O)N[C@@H](Cc2c[nH]c3ccccc23)C(=O)N1C [Example 1189],> 30.5,> 74.3,,
CCCC[C@H]1C(=O)N(C)[C@@H](CCCC)C(=O)N[C@@H](CCCNC(=N)N)C(=O)N[C@H](C(=O)NCC(N)=O)CSCC(=O)N[C@@H](Cc2ccc(O)cc2)C(=O)N(C)[C@@H](CC(=O)O)C(=O)N[C@@H](CC(N)=O)C(=O)N2CCC[C@H]2C(=O)N[C@@H](Cc2cnc[nH]2)C(=O)N[C@@H](CC(C)C)C(=O)N2CCC[C@H]2C(=O)N[C@@H](Cc2c[nH]c3ccccc23)C(=O)N[C@@H](CO)C(=O)N[C@@H](Cc2csc3ccccc23)C(=O)N1C [Example 1190] ({CH2CO}-Y[NMeD]NPHLPWS[Bta][NMeNle][NMeNle]RCG-NH2; thioether N-14),> 30.5,> 74.3,,
CCCC[C@H]1C(=O)N(C)[C@@H](CCCC)C(=O)N[C@@H](CCCNC(=N)N)C(=O)N[C@H](C(=O)NCC(N)=O)CSCC(=O)N[C@@H](Cc2ccc(O)cc2)C(=O)N(C)[C@@H](CCC(=O)O)C(=O)N[C@@H](CC(N)=O)C(=O)N2CCC[C@H]2C(=O)N[C@@H](Cc2cnc[nH]2)C(=O)N[C@@H](CC(C)C)C(=O)N2CCC[C@H]2C(=O)N[C@@H](Cc2c[nH]c3ccccc23)C(=O)N[C@@H](CO)C(=O)N[C@@H](Cc2csc3ccccc23)C(=O)N1C [Example 1191] ({CH2CO}-Y[NMeE]NPHLPWS[Bta][NMeNle][NMeNle]RCG-NH2; thioether N-14),> 30.5,> 74.3,,
CCCC[C@H]1C(=O)N(C)[C@@H](CCCC)C(=O)N[C@@H](CCCN)C(=O)N[C@H](C(=O)NCC(N)=O)CSCC(=O)N[C@@H](Cc2ccc(O)cc2)C(=O)N2C[C@H](N)C[C@H]2C(=O)N[C@@H](CC(N)=O)C(=O)N2CCC[C@H]2C(=O)N[C@@H](Cc2cnc[nH]2)C(=O)N[C@@H](CC(C)C)C(=O)N2C[C@H](O)C[C@H]2C(=O)N[C@@H](Cc2c[nH]c3ccccc23)C(=O)N[C@@H](CO)C(=O)N[C@@H](Cc2c[nH]c3ccccc23)C(=O)N1C [Example 1192],,,6.74,21.5
CCCC[C@H]1C(=O)N(C)[C@@H](CCCC)C(=O)N[C@@H](CCCN)C(=O)N[C@H](C(=O)NCC(N)=O)CSCC(=O)N[C@@H](Cc2ccc(O)cc2)C(=O)N2CCC[C@H]2C(=O)N[C@@H](CC(=O)O)C(=O)N2CCC[C@H]2C(=O)N[C@@H](CN)C(=O)N[C@@H](CCC(=O)O)C(=O)N2C[C@H](O)C[C@H]2C(=O)N[C@@H](Cc2c[nH]c3ccccc23)C(=O)N[C@@H](CCN)C(=O)N[C@@H](Cc2csc3ccccc23)C(=O)N1C [Example 1193] ({CH2CO}-YPDP[Dap]E[Hyp]W[Dab][Bta][NMeNle][NMeNle][Orn]CG-NH2; thioether N-14),0.385 to 6.74,0.158 to 4.71,,
CCCC[C@H]1C(=O)N(C)[C@@H](CCCC)C(=O)N[C@@H](CCCN)C(=O)N[C@H](C(=O)NCC(N)=O)CSCC(=O)N[C@@H](Cc2ccc(O)cc2)C(=O)N(C)[C@@H](C)C(=O)N[C@@H](CC(N)=O)C(=O)N2CCC[C@H]2C(=O)N[C@@H](CN)C(=O)N[C@@H](CC(C)C)C(=O)N2C[C@H](O)C[C@H]2C(=O)N[C@@H](Cc2c[nH]c3ccccc23)C(=O)N[C@@H](CCN)C(=O)N[C@@H](Cc2csc3ccccc23)C(=O)N1C [Example 1194] ({CH2CO}-Y[NMeA]NP[Dap]L[Hyp]W[Dab][Bta][NMeNle][NMeNle][Orn]CG-NH2; thioether N-14),0.385 to 6.74,0.158 to 4.71,,
CCCC[C@H]1C(=O)N(C)[C@@H](CCCC)C(=O)N[C@@H](CCCN)C(=O)N[C@H](C(=O)NCC(N)=O)CSCC(=O)N[C@@H](Cc2ccc(O)cc2)C(=O)N(C)[C@@H](C)C(=O)N[C@@H](CC(N)=O)C(=O)N2CCC[C@H]2C(=O)N[C@@H](CN)C(=O)N[C@@H](CCC(N)=O)C(=O)N2C[C@H](O)C[C@H]2C(=O)N[C@@H](Cc2c[nH]c3ccccc23)C(=O)N[C@@H](CCN)C(=O)N[C@@H](Cc2csc3ccccc23)C(=O)N1C [Example 1195] ({CH2CO}-Y[NMeA]NP[Dap]Q[Hyp]W[Dab][Bta][NMeNle][NMeNle][Orn]CG-NH2; thioether N-14),0.385 to 6.74,0.158 to 4.71,,
CCCC[C@H]1C(=O)N(C)[C@@H](CCCC)C(=O)N[C@@H](CCCNC(=N)N)C(=O)N[C@H](C(=O)NCC(N)=O)CSCC(=O)N[C@@H](Cc2ccccc2)C(=O)N(C)[C@@H](C)C(=O)N[C@@H](CC(N)=O)C(=O)N2CCC[C@H]2C(=O)N[C@@H](Cc2cnc[nH]2)C(=O)N[C@@H](CC(C)C)C(=O)N2CCCC[C@H]2C(=O)N[C@@H](Cc2c[nH]c3ccccc23)C(=O)N[C@@H](CO)C(=O)N[C@@H](Cc2c[nH]c3ccccc23)C(=O)N1C [Example 1196] ({CH2CO}-F[NMeA]NPHL[Pip]WSW[NMeNle][NMeNle]RCG-NH2; thioether N-14),> 30.5,4.78 to 72.9,,
"CCCC[C@H]1C(=O)N(C)[C@@H](CCCC)C(=O)N[C@@H](CCCNC(=N)N)C(=O)N[C@H](C(=O)NCC(N)=O)CSCC(=O)N[C@@H](Cc2ccccc2)C(=O)N(C)[C@@H](C)C(=O)N[C@@H](CC(N)=O)C(=O)N2CCC[C@H]2C(=O)N[C@@H](Cc2cnc[nH]2)C(=O)N[C@@H](CC(C)C)C(=O)N2CC(F)(F)C[C@H]2C(=O)N[C@@H](Cc2c[nH]c3ccccc23)C(=O)N[C@@H](CO)C(=O)N[C@@H](Cc2c[nH]c3ccccc23)C(=O)N1C [Example 1197] ({CH2CO}-F[NMeA]NPHL[Pro(4,4-F2)]WSW[NMeNle][NMeNle]RCG-NH2; thioether N-14)",6.76 to 30.3,4.78 to 72.9,,
CCCC[C@H]1C(=O)N(C)[C@@H](CCCC)C(=O)N[C@@H](CC(=O)O)C(=O)N[C@H](C(=O)NCC(N)=O)CSCC(=O)N[C@@H](Cc2ccc(O)cc2)C(=O)N(C)[C@@H](C)C(=O)N[C@@H](CC(=O)O)C(=O)N2CCC[C@H]2C(=O)N[C@@H](Cc2c[nH]cn2)C(=O)N[C@@H](CCCNC(=N)N)C(=O)N2CCCC2C(=O)N[C@@H](Cc2c[nH]c3ccccc23)C(=O)N[C@@H](CCCNC(=N)N)C(=O)N[C@@H](Cc2c[nH]c3ccccc23)C(=O)N1C (stereo partly drawn) [Example 1201] ({CH2CO}-Y[NMeA]DPHR[ξP]WRW[NMeNle][NMeNle]DCG-NH2; thioether N-14),6.76 to 30.3,4.78 to 72.9,,
